The target of assay [1] is T1, Nucleotide-binding oligomerization domain-containing protein 1 (Homo sapiens, UniProt Q9Y239).
T1 sequence (Q9Y239 whole entry): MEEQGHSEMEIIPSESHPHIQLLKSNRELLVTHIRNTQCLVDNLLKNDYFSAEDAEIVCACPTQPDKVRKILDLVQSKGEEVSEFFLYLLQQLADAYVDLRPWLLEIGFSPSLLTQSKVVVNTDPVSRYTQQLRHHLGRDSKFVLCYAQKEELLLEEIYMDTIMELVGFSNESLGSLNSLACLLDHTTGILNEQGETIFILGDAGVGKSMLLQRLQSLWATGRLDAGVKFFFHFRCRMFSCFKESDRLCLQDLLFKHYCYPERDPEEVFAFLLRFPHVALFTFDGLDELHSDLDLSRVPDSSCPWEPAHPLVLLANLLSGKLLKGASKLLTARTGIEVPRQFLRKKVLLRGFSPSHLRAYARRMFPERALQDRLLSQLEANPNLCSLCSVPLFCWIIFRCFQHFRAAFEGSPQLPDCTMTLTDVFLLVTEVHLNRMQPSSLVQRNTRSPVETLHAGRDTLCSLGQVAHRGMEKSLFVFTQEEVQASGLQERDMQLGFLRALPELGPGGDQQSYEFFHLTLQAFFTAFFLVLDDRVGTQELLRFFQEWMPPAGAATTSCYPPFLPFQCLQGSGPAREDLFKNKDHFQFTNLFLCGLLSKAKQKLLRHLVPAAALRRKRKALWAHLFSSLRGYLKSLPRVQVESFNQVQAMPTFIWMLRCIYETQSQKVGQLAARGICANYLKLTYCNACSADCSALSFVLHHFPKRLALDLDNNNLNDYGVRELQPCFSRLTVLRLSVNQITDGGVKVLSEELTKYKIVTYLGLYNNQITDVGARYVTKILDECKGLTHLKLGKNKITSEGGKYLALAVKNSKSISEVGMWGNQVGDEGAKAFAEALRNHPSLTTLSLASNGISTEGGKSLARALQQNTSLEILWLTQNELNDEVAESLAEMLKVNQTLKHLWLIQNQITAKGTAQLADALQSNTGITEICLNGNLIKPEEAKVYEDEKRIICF
Put plainly: SAR analysis of NF-kappaB dependent luciferase using DAP as an inducer - Set 2. [Related pubchem assays (depositor defined):AID1566, AID1575, AID1578, AID1579, AID1849, AID1852, AID2264]. Type of assay: functional.

Assay [2] deals with T2, Interleukin-8 (Homo sapiens, UniProt P10145).
T2 sequence (P10145 whole entry): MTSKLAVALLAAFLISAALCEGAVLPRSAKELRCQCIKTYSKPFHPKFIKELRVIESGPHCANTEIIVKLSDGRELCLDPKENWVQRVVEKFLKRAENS
Put plainly: SAR analysis of Tumor necrosis factor alpha (TNF-alpha) induced IL-8 secretion in MCF-7/NOD1 cells - Set 2. [Related pubchem assays (depositor defined):AID1575, AID2250, AID2260]. The assay is classed as functional, cell-based.

For assay [3], the target named is T2, Interleukin-8. Put plainly: SAR analysis of GM-Tri-DAP induced IL-8 secretion in MCF-7/NOD1 cells - Set 2. [Related pubchem assays (depositor defined):AID1575, AID1578, AID2333]. Type of assay: functional, cell-based.
The target of assay [4] is T3, Nucleotide-binding oligomerization domain-containing protein 2 (Homo sapiens, UniProt Q9HC29). Put plainly: inhibition of NOD2 signaling – set 2, SAR follow-up (AID 2475). Type of assay: functional.
T3 sequence (Q9HC29 whole entry, the tested form may be a part): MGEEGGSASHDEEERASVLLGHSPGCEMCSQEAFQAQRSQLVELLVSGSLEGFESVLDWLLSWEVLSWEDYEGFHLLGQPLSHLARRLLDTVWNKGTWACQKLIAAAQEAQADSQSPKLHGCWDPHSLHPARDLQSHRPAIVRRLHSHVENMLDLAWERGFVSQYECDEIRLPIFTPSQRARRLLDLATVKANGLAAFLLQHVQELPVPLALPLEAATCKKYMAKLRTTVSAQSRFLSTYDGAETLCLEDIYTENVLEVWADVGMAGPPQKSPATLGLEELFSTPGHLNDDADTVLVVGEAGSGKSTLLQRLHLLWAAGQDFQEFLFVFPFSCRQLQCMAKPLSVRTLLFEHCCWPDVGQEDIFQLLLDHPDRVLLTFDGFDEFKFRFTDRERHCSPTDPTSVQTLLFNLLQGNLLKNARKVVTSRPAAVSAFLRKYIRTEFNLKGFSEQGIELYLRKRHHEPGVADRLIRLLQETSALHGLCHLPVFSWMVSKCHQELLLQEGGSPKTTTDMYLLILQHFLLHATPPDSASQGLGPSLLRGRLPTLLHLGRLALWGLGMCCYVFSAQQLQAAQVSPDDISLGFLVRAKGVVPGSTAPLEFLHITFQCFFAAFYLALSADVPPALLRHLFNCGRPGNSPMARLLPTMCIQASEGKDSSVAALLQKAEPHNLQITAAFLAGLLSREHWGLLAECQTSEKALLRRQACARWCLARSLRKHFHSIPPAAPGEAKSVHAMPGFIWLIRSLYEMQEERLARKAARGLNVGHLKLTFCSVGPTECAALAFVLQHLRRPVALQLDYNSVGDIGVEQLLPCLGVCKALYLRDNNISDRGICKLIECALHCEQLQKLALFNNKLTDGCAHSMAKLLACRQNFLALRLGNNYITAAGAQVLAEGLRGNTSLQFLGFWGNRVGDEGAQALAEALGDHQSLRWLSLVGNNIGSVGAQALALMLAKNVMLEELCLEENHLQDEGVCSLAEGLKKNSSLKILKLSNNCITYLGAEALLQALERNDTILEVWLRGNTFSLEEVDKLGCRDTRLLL
The test system of assay [5] is HEK293. Put plainly: SAR analysis of compounds that are cytotoxic to HEK293 - Set 2. [Related pubchem assays (depositor defined):AID1575, AID1578, AID1849, AID2001, AID2333, AID2334, AID2335, AID2337, AID2800]. The assay is classed as functional, cell-based. As to conditions: Homo sapiens.
For assay [6], the target named is T1, Nucleotide-binding oligomerization domain-containing protein 1. Put plainly: SAR analysis of compounds that inhibit NOD1 - Set 2. [Related pubchem assays (depositor defined):AID1566, AID1575, AID1578, AID1849, AID1852, AID2333, AID2335, AID2798]. Type of assay: functional.
The target is the same in assay [7]. Put plainly: SAR analysis of compounds that inhibit NOD1 - Set 3. [Related pubchem assays (depositor defined):AID1566, AID1575, AID1578, AID1849, AID1852, AID2333, AID2335, AID2466]. The assay is classed as functional.
Assay [8] has as its target Tumor necrosis factor (Homo sapiens, UniProt P01375). Put plainly: analog potency on TNFa NF-kB signaling – cell-based, set 3, SAR follow-up (AID 2801). The assay is classed as functional.
Assay [9] relates to HEK293. Put plainly: SAR analysis of compounds that are cytotoxic to HEK293 - Set 3. [Related pubchem assays (depositor defined):AID1575, AID1578, AID1848, AID1849, AID2001, AID2333, AID2334, AID2335, AID2337, AID2469]. Type of assay: functional, cell-based. The conditions noted are these: Homo sapiens.
Assay [10] concerns the target T3, Nucleotide-binding oligomerization domain-containing protein 2. Put plainly: inhibition of MDP-driven NOD2 NF-kB reporter – cell-based, set 3, SAR follow-up (AID 2799). The assay is classed as functional.
Assay [11] addresses T4, Delta-type opioid receptor (Homo sapiens, UniProt P41143). Put plainly: HTS Image-Based Screen for Antagonists of the DOR Receptor. [Related pubchem assays (depositor defined):AID1777, AID1785, AID1786, AID2133]. The assay is classed as functional.
For assay [12], the target named is Mu-type opioid receptor (Homo sapiens, UniProt P35372). Put plainly: HTS Image-Based Screen for Agonists of the MOR Receptor. [Related pubchem assays (depositor defined):AID1777, AID1785, AID1786, AID2133]. Type of assay: functional.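 Further: imaging of beta-arrestin GFP recruitment into spots after receptor activation.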
Chain of Mu-type opioid receptor (P35372 whole entry): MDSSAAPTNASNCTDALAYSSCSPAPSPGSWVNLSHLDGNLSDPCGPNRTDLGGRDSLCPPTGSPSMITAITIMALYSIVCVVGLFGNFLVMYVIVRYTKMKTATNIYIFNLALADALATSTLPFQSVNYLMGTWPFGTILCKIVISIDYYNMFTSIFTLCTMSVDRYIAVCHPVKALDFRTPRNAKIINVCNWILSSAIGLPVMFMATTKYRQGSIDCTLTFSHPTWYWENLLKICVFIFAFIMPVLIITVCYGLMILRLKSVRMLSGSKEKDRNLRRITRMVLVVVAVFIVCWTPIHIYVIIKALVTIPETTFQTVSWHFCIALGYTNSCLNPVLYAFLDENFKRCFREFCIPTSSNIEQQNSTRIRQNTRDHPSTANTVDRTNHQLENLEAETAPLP
The target in assay [13] is T4, Delta-type opioid receptor. Put plainly: HTS Image-Based Screen for Agonists of the DOR Receptor. [Related pubchem assays (depositor defined):AID1777, AID1786, AID2133]. The assay is classed as functional.
For assay [14], the target named is T5, Kappa-type opioid receptor (Homo sapiens, UniProt P41145). Type of assay: functional.
T5 sequence (P41145 whole entry): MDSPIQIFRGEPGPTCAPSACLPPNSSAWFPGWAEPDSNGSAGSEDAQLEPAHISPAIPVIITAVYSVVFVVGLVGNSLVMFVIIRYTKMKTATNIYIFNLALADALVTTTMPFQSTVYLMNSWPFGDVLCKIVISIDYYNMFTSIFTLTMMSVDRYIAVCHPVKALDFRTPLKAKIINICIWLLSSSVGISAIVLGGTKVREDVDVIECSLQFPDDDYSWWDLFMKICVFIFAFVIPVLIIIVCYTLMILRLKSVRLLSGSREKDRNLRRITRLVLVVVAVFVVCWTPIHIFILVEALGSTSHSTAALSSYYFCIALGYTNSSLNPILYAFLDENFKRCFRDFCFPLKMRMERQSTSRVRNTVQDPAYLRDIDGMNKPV
Assay [15] addresses Beta-galactosidase (Escherichia coli, UniProt Q8VNN2). Type of assay: functional.
Assay [16] addresses T5, Kappa-type opioid receptor. Type of assay: functional. This is another data set of the same source.
The target of assay [17] is T6, Replicative DNA helicase DnaB (Mycobacterium tuberculosis, UniProt P9WMR3).
T6 sequence (P9WMR3 whole entry): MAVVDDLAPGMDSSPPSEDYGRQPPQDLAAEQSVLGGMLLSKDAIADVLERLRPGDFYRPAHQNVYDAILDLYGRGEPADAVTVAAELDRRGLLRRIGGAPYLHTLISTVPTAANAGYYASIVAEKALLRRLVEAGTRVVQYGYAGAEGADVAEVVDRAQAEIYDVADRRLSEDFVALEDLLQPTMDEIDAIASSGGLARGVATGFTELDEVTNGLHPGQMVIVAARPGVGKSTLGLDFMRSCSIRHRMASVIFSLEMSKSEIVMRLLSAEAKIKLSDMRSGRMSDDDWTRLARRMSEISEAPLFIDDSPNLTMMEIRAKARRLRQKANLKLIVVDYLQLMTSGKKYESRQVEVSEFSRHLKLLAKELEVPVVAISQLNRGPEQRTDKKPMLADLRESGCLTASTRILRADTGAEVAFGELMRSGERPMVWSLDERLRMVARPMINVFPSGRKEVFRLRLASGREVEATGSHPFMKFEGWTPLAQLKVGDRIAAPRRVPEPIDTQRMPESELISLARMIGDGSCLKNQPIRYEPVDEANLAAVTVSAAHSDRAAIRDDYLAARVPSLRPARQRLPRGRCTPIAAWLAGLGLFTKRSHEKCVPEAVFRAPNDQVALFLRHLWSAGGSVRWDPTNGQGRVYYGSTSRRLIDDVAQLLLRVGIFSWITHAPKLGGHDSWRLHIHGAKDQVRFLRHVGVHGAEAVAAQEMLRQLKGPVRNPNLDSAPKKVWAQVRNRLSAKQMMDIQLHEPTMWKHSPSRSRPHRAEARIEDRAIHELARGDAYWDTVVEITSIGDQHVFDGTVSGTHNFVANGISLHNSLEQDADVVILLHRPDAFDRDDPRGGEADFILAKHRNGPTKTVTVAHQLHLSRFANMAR
Put plainly: DnaB intein splicing inhibitors, dose response, biochemical, cell-free fluorescence (AID 449749). Type of assay: functional.

Assay [18] concerns the target T7, Protein RecA (Mycobacterium tuberculosis, UniProt P9WHJ3).
T7 sequence (P9WHJ3 whole entry): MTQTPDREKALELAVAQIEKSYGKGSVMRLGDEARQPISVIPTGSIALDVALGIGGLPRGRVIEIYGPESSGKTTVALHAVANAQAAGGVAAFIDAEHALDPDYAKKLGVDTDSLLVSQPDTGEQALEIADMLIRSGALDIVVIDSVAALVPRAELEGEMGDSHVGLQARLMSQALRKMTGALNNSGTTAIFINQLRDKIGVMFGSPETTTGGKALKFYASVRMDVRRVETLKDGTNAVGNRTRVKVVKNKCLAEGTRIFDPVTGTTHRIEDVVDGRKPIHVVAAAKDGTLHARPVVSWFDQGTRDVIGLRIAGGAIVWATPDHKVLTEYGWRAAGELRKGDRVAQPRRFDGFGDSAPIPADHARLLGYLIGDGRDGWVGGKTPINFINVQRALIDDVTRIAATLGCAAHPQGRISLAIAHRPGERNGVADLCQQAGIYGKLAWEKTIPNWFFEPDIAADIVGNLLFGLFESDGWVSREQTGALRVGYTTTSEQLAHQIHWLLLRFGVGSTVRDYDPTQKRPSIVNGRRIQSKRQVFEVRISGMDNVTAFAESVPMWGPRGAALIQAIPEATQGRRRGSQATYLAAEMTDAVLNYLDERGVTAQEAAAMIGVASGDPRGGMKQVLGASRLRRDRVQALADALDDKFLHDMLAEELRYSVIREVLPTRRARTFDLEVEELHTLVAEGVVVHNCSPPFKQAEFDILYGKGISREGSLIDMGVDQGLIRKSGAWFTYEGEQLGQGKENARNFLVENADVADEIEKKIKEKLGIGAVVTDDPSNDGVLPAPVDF
Put plainly: Fluorescence Cell-Free Homogeneous Dose Retest to Identify Inhibitors of RecA-Intein Splicing Activity. [Related pubchem assays (depositor defined):AID2097, AID2223, AID489010, AID492950]. The assay is classed as functional.

Active and inactive are the calls of the source.

The values that follow come from ChEMBL document CHEMBL1201862, “PubChem BioAssay data set” (2004).

T4 sequence (P41143 whole entry): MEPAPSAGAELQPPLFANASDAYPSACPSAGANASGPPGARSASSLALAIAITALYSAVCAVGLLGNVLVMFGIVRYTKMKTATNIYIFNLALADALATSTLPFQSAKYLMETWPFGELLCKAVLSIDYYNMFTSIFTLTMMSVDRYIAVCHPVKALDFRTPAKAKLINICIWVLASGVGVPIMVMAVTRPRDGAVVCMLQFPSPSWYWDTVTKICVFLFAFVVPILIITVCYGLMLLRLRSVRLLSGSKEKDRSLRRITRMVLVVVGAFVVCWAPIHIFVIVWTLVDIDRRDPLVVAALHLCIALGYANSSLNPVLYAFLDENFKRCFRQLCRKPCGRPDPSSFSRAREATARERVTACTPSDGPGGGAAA
Chain of Tumor necrosis factor (P01375 whole entry): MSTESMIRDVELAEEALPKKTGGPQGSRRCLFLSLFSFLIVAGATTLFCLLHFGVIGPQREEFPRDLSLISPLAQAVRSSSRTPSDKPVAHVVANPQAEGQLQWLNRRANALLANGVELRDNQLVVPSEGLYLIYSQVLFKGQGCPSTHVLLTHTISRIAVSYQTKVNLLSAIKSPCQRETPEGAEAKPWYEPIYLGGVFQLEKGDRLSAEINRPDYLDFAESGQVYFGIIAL
Chain of Beta-galactosidase (Q8VNN2 whole entry): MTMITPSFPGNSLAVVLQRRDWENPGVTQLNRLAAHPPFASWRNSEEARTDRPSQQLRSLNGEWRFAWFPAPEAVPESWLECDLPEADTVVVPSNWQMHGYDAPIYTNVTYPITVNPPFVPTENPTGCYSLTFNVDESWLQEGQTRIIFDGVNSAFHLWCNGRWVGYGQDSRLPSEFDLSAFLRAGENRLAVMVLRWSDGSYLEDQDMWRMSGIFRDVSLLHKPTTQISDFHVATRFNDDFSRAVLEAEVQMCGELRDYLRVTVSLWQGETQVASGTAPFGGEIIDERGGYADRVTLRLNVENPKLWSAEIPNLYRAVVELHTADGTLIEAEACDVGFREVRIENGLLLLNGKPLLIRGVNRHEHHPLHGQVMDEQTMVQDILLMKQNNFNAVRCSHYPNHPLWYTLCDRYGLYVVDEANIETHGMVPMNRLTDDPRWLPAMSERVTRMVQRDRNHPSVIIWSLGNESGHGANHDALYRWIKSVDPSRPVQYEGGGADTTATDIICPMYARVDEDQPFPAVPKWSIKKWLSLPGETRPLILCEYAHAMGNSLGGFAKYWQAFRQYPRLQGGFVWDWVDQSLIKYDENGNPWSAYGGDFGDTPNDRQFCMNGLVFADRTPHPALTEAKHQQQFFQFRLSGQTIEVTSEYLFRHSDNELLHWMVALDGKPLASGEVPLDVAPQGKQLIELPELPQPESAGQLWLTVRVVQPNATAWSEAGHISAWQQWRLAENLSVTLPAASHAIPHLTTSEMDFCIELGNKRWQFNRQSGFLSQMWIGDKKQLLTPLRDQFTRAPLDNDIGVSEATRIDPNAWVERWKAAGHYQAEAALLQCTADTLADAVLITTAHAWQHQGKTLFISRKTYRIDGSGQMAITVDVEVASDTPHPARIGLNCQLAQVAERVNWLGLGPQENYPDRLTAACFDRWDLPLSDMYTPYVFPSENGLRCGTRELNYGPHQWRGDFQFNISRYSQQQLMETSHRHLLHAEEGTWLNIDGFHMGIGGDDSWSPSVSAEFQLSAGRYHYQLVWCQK

In the case of `CCCn1c(SCCc2ccccc2)nc2c1c(=O)[nH]c(=O)n2C`, the IC50 in assay [1] was > 25 µM (inactive); in assay [2], > 25 µM (inactive); in [3], > 25 µM (inactive); in assay [4], > 20 µM (inactive); in [5] it was > 20 µM (inactive); in [6] it was > 20 µM (inactive). Also, the IC50 in assay [7], in assay [8], in assay [9] and in assay [10] was > 20 µM (inactive) throughout.
For the compound `O=[N+]([O-])c1ccc2nc(Cl)nc(-c3ccccc3)c2c1`, the IC50 in assay [11] was > 32 µM (inactive); in [14], 8.95 µM (active); in assay [16], 27.9 µM. The EC50 in [12] was > 32 µM (inactive); in assay [13], > 32 µM (inactive); in assay [15], > 31.5 µM (inactive); in assay [18], > 380 µM (inactive). The AC50 in [17] was 134 µM (active).

What is called IC50 is the concentration at which inhibition is half-maximal. As usually defined, the EC50 is the concentration at which the effect is half-maximal. One may read the AC50 as the concentration giving half of the maximal activity seen.
